The values that follow come from PMC6950716, “Bioactive Secondary Metabolites from the Culture of the Mangrove-Derived Fungus Daldinia eschscholtzii HJ004” (Marine Drugs, 2019).

This test concerns the target α-glucosidase. Put plainly: α-glucosidase inhibition assay in 96-well plates (modified Sawada et al.). Format: biochemical.

In brackets after ≈: the same amount, converted by molar mass.

Turning to `COC1=CC(=O)c2c(cc3c(c2O)COC3)C1=O` [compound 4, 5-hydroxy-2-methoxynaphtho[9–c]furan-1,4-dione], the IC50 (usually the concentration at which inhibition is half-maximal) is 5.7 µg/mL (≈ 23.2 µM).

On to `COc1cccc2cc(C(C)=O)oc12` [compound 7, 2-acetyl-7-methoxybenzofuran], for which the IC50 is 1.1 µg/mL (≈ 5.78 µM).
